Measured values from ChEMBL document CHEMBL1201862, “PubChem BioAssay data set” (2004).
Calls of active or inactive are those of the source.

How the values were obtained:
[1] = inhibitors of intracellular T. cruzi replication, confirmation, NIH3T3 host cells, beta-gal luminescence (AID 2044); format: functional, cell-based;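 note: intracellular parasites grown in NIH/3T3 mouse fibroblasts as host cells; luminescent beta-galactosidase reporter signal from transgenic T. cruzi replicating inside host cells; inhibitors lower the luminescence signal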
[2] = cytotoxicity toward NIH3T3 fibroblasts, dose response, counter-screen, cell-based, ATP luminescence, mouse fibroblasts (AID 2010); format: functional;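 note: cells exposed to compound for about 90 hours before reading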
[3] = target: Disintegrin and metalloproteinase domain-containing protein 17 (Homo sapiens, UniProt P78536); experiment: exosite inhibitors of ADAM17, dose response, biochemical (AID 743260)
Disintegrin and metalloproteinase domain-containing protein 17, sequence (P78536 whole entry, the tested form may be a part): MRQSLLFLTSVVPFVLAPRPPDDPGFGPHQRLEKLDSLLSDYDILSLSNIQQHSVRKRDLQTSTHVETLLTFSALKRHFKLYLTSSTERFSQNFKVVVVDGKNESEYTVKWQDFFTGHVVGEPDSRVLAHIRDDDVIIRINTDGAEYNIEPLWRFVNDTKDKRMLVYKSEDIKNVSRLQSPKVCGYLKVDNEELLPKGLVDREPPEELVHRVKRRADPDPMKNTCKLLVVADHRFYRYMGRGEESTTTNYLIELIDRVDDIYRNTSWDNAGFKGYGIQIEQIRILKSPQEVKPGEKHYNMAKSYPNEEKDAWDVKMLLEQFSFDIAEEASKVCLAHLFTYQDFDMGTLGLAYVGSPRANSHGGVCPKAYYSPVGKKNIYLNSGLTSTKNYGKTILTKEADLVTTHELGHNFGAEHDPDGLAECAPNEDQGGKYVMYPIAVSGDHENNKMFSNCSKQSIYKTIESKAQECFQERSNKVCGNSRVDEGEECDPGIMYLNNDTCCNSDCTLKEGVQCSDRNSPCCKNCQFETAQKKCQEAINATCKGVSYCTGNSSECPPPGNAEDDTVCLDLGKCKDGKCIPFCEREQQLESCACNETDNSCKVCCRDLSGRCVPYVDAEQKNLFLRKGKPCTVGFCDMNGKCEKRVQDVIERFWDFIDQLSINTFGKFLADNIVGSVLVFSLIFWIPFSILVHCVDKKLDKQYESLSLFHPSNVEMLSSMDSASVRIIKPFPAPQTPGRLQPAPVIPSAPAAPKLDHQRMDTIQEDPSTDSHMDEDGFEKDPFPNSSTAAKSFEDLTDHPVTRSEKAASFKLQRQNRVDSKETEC

[4] = ADAM10 protease inhibitors, dose response, selectivity assay for ADAM17 exosite inhibitor project, biochemical, FRET peptide substrate, recombinant human ADAM10 (AID 743259);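 note: ADAM10 enzyme cleaving a FRET peptide substrate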
[5] = target: Potassium channel subfamily K member 9 (Homo sapiens, UniProt Q9NPC2); experiment: TASK3 (KCNK9) channel inhibitors, thallium flux, SAR follow-up, selectivity assay for TASK1 inhibitor project, cell-based, FluxOR thallium flux, concentration-response (AID 652211); format: functional;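 note: potency is for inhibitors of the channel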
[6] = target: Potassium channel subfamily K member 3 (Homo sapiens, UniProt O14649); experiment: TASK1 (KCNK3) potassium channel inhibitors, SAR follow-up, CHO cells, FluxOR thallium flux (AID 652212); format: functional
Potassium channel subfamily K member 3, sequence (O14649 whole entry): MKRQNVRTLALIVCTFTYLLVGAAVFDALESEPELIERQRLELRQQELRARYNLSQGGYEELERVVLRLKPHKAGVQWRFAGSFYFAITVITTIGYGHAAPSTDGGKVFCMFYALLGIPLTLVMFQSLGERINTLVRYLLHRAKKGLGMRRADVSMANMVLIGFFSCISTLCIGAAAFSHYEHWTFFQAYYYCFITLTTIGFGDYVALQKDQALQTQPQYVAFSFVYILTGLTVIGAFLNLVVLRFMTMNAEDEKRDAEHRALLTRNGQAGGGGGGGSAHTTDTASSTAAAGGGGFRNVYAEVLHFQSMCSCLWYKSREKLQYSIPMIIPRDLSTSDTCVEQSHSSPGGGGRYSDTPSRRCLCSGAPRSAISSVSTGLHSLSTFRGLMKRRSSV

[7] = target: Metabotropic glutamate receptor 3 (Rattus norvegicus, UniProt P31422); experiment: mGlu3 NAM potency via calcium readout, dose response, mGlu3 NAM project, TREx293 cells, Galpha15, calcium flux (AID 651840); format: functional
cells = format: functional, cell-based
[8] = target: Nuclear receptor subfamily 0 group B member 1 (Homo sapiens, UniProt P51843); format: functional, cell-based;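 note: HEK293T cells transfected with SF-1 and DAX-1 plus StAR promoter luciferase reporter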
Nuclear receptor subfamily 0 group B member 1, sequence (P51843 whole entry): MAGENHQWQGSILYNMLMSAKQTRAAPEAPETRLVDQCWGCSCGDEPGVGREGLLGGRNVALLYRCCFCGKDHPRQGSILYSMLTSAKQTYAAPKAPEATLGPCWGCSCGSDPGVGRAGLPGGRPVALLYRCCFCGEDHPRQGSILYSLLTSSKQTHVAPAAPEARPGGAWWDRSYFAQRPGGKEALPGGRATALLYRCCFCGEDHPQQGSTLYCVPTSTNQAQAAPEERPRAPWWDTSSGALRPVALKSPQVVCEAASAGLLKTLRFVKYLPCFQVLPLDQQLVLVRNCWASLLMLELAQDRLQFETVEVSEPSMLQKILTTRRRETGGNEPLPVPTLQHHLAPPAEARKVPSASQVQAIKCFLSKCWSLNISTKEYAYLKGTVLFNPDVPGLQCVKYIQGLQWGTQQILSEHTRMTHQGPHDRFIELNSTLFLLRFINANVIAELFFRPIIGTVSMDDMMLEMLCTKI

[9] = HepG2 cell cytotoxicity, dose response, cytotoxicity control, cherry-picks, set 5 (AID 1053118); format: functional, cell-based
[10] = HEK293 cell cytotoxicity, dose response, cytotoxicity control, cherry-picks, set 5 (AID 1053117); format: functional, cell-based
[11] = target: NAD-dependent protein deacylase sirtuin-5, mitochondrial (Homo sapiens, UniProt Q9NXA8); experiment: SIRT5 desuccinylase inhibitors, dose response, biochemical, fluorescence imaging, cherry-pick, set 5 (AID 720591);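 note: desuccinylation of succinyl peptide AMC substrate read as fluorescence after trypsin release; potency of inhibitors that lower fluorescence and may act on trypsin instead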
NAD-dependent protein deacylase sirtuin-5, mitochondrial, sequence (Q9NXA8 whole entry): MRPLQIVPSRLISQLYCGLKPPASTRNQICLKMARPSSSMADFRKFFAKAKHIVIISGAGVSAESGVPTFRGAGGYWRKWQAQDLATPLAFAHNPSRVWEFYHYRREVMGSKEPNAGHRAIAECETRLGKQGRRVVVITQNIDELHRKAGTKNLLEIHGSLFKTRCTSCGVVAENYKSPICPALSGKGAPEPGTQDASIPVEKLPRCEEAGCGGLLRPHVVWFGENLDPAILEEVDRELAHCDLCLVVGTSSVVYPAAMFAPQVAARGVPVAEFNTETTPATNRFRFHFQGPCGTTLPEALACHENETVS

HEK293 [12] = experiment: NOD1 signaling inhibitors, primary screen, cell-based, luminescence, uHTS (AID 1578); format: functional; settings: Homo sapiens
HEK293 [13] = experiment: cells; format: functional, cell-based; settings: Homo sapiens
HEK293 [14] = experiment: cells; format: functional, cell-based; settings: Homo sapiens; remark: listed apart in the source
[15] = target: Nucleotide-binding oligomerization domain-containing protein 2 (Homo sapiens, UniProt Q9HC29); experiment: NOD2 signaling inhibitors, cell-based, luminescence, uHTS, HEK293 (AID 1566); format: functional
HEK293 [16] = experiment: NOD2 signaling inhibitors in MDP-stimulated cells, cell-based, uHTS, luminescence (AID 2001); format: functional; settings: Homo sapiens
HEK293 [17] = experiment: cells; format: functional, cell-based; settings: Homo sapiens; remark: listed apart in the source
[18] = target: Neurotensin receptor type 1 (Homo sapiens, UniProt P30989); format: functional;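 note: Image-based confirmatory dose-response assay measuring agonist activity at NTR1; NTR1-expressing U2OS osteosarcoma cells imaged for beta-arrestin GFP spot formation; agonist potency where compounds increase beta-arrestin recruitment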
[19] = Shn3 3'UTR reporter inhibitors, dose response, cell-based, Clone20 osteoblasts, firefly luciferase, cherry-picked (AID 624132); format: functional;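 note: firefly luciferase luminescence from reporter carrying the Shn3 3'UTR in osteoblasts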
[20] = HepG2 cell cytotoxicity, dose response, cytotoxicity control for Shn3 inhibitor project, CellTiter-Glo, cherry-picked (AID 624134); format: functional, cell-based
[21] = control 3'UTR Renilla luciferase suppression, dose response, counter-screen for Shn3 inhibitor project, cell-based, Clone20-Shn3RL, cherry-picked (AID 624133); format: functional
[22] = A549 cell cytotoxicity, dose response, cytotoxicity control, plate reader, cherry-pick, antagonist series (AID 743412); format: functional, cell-based
[23] = HepG2 cell cytotoxicity, dose response, cytotoxicity control, plate reader, cherry-pick, antagonist series (AID 743416); format: functional, cell-based
[24] = LGR2 antagonists, dose response, cell-based, HEK293, CRE-luciferase reporter, cherry pick, set 2 (AID 743343); format: functional;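 note: transfected cells were stimulated with diluted bursicon conditioned medium after compound addition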
[25] = target: 1-phosphatidylinositol 4,5-bisphosphate phosphodiesterase gamma-1 (Homo sapiens, UniProt P19174); experiment: Counterscreen for inhibitors of phospholipase C isozymes (PLC-B3): Fluorescence-based biochemical high throughput dose response assay to identify inhibitors of phospholipase C isozymes (PLC-gamma1).
1-phosphatidylinositol 4,5-bisphosphate phosphodiesterase gamma-1, sequence (P19174 whole entry): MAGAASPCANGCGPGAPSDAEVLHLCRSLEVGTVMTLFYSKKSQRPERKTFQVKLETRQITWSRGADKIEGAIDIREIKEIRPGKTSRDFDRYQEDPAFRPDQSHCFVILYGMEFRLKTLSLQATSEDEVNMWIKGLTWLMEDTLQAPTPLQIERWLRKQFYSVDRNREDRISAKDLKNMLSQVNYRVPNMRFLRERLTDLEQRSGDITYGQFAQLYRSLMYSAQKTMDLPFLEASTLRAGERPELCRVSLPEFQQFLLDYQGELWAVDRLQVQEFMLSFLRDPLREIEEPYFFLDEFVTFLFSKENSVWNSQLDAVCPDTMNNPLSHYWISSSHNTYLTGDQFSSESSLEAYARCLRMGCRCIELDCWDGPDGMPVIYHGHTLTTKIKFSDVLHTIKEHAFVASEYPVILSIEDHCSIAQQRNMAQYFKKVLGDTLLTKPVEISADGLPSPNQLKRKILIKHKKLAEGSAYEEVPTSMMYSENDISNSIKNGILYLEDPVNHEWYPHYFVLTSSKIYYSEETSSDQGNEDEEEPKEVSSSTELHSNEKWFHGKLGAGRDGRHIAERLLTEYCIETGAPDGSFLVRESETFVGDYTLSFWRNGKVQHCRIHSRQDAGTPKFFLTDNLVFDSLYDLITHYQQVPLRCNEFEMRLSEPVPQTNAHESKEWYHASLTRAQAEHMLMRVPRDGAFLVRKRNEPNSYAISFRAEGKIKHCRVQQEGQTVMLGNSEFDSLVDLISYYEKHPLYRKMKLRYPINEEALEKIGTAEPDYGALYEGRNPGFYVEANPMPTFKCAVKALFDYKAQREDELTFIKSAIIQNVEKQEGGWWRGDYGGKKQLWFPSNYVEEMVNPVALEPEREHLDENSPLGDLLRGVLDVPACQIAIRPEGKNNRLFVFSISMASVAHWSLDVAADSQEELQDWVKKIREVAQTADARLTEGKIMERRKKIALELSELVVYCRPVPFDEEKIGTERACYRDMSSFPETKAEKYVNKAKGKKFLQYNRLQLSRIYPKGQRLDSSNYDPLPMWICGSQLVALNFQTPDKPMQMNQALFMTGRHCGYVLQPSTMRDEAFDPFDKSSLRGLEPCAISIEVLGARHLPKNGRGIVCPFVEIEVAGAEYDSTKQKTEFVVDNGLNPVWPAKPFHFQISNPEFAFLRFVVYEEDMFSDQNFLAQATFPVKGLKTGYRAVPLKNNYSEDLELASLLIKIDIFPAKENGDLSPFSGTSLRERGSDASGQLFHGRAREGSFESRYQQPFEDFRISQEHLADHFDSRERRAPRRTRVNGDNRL

[26] = MC4R antagonists, dose response, counter-screen for LGR2 antagonist project, cell-based, plate reader, cherry pick (AID 743444); format: functional;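 note: transfected HEK 293 cells stimulated with alpha-MSH peptide; potency of inhibitors of the alpha-MSH evoked signal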
[27] = target: 1-phosphatidylinositol 4,5-bisphosphate phosphodiesterase beta-3 (Homo sapiens, UniProt Q01970); experiment: Fluorescence-based biochemical high throughput dose response assay to identify inhibitors of phospholipase C isozymes (PLC-B3).
1-phosphatidylinositol 4,5-bisphosphate phosphodiesterase beta-3, sequence (Q01970 whole entry): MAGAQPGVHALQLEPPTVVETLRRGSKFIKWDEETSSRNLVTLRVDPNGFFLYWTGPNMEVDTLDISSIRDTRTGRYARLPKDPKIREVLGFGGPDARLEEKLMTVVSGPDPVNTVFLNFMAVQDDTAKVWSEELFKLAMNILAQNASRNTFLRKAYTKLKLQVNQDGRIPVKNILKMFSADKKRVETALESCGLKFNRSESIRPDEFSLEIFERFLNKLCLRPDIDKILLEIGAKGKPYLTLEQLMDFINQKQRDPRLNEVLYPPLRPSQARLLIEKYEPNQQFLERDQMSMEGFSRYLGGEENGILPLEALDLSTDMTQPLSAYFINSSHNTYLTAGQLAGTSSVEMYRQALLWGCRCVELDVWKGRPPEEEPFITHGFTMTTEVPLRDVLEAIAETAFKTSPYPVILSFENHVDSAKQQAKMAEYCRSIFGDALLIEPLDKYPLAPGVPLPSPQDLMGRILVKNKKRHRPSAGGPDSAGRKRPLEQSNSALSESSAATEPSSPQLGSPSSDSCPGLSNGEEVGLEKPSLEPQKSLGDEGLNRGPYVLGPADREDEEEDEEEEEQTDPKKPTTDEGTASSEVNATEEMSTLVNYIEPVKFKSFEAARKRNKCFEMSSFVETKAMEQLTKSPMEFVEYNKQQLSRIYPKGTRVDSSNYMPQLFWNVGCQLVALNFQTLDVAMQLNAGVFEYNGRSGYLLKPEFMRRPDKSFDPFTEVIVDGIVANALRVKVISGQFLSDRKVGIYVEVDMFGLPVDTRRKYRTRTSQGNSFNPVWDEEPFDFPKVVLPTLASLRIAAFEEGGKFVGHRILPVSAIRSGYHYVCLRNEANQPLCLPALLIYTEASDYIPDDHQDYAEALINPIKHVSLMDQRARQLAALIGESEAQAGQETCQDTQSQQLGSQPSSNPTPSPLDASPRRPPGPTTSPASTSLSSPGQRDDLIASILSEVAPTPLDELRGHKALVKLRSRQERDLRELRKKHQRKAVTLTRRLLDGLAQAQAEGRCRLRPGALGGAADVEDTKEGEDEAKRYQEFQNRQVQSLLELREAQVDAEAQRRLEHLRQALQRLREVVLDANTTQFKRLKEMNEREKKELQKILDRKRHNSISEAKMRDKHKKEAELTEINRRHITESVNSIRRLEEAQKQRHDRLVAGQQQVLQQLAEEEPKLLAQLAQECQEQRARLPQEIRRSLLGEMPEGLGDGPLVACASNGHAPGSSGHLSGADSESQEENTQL

[28] = HEK293 cell cytotoxicity, dose response, cytotoxicity control, plate reader, cherry-picked samples (AID 743446); format: functional, cell-based
Cryptococcus neoformans = experiment: PubChem AID 686997; format: functional, organism-based
HeLa = experiment: HeLa cell cytotoxicity, dose response, cytotoxicity control, ATP luminescence, cherry-pick samples (AID 687004); format: functional, cell-based; settings: Homo sapiens
HEK293 [29] = experiment: HEK293T cell cytotoxicity, dose response, cytotoxicity control, ATP luminescence, cherry-pick samples (AID 687005); format: functional, cell-based; settings: Homo sapiens;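 note: cells exposed to compound for 48 hours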
[30] = HEK293 Cytotoxicity Assay Measured in Cell-Based System Using Plate Reader - 7071-01_Inhibitor_Dose_CherryPick_Activity_Set2.; format: functional
[31] = target: T1, Scavenger receptor class B member 1 (Mus musculus, UniProt Q61009); experiment: inhibitors of SR-BI dependent HDL uptake, dose response, ldlA[mSR-BI] CHO cells, fluorescence plate reader, dry powder, set 9 (AID 623880); format: functional, cell-based
T1 sequence (Q61009 whole entry): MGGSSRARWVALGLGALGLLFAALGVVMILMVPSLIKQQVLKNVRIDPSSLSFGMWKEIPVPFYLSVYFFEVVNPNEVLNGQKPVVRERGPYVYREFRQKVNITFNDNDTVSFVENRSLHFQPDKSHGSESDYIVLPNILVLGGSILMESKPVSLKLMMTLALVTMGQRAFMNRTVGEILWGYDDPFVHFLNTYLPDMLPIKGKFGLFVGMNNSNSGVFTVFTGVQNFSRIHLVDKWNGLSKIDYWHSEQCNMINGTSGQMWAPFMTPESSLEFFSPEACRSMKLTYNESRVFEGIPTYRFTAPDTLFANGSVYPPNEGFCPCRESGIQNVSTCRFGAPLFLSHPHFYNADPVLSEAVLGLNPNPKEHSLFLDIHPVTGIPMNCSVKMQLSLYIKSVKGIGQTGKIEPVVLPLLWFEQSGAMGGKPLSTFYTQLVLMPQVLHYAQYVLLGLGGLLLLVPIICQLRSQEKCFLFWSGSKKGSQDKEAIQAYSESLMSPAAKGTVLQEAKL

[32] = target: T1, Scavenger receptor class B member 1; experiment: inhibitors of SR-BI-mediated HDL uptake, dose response, cell-based, ldlA[mSR-BI] CHO, DiI fluorescence, dry powder, set 10 (AID 624029); format: functional

With COC(=O)C1=C(c2cc3ccccc3s2)C[C@@H]2CC[C@H]1N2C(=O)NCc1ccc(C(F)(F)F)cc1 the EC50 [1] was 3.12 µM (active), the EC50 [2] was 8.21 µM (active) and the IC50 [3] was > 69.5 µM (inactive). The IC50 [4] was > 7.72 µM (active).
For COc1cccc(OC)c1C(=O)Nc1cccc(NC(=O)c2cccc(C)c2)c1, the IC50 [5] was 19.2 µM (active) and the IC50 [6] was 0.148 µM (active).
COc1ccc(C#Cc2ccc(C(=O)N3CCC(=O)C(C)(C)C3)cc2)cc1 gave an IC50 [7] of 3.13 µM.
For CC(=O)Nc1ccc(-c2ccnc3c2CC(C(=O)NCc2ccco2)O3)cc1 (stereo not given), the IC50 (cells) was > 67.5 µM (inactive) and the IC50 [8] was > 67.5 µM (inactive).
With CO[C@@H]1CN(C)C(=O)c2cc(NC(=O)Nc3cc(Cl)cc(Cl)c3)ccc2OC[C@H](C)NC[C@@H]1C the AC50 [9] was 13.1 µM (active) and the AC50 [10] was 15.8 µM (active).
In the case of CCn1ccnc1CN(C)C(=O)CC1C(=O)NCCN1Cc1c(F)cccc1Cl (stereo not given), the AC50 [11] is reported as > 30 µM (inactive).
With CN(C(=O)COc1ccccc1C(=O)NCCOc1ccccc1)c1ccccc1 the EC50 (HEK293 [12]) was 5.76 µM (active), the IC50 (HEK293 [13]) was 3.82 µM (active) and the IC50 (HEK293 [14]) was 11.2 µM (active). The EC50 [15] was 7.78 µM (active), the IC50 (HEK293 [16]) was 4.32 µM (active) and the IC50 (HEK293 [17]) was 3.42 µM (active). For the same molecule, the EC50 [18] was 17.9 µM (active), the AC50 [19] was 1.57 µM (active) and the AC50 [20] was 51.9 µM (active). The AC50 [21] was 4.23 µM (active), the AC50 [22] was 20.8 µM (active) and the AC50 [23] was 32.7 µM (active). The AC50 [24] was 12.8 µM (active), the IC50 [25] was > 122 µM (inactive) and the AC50 [26] was 11.2 µM (active). For the same molecule, the IC50 [27] was > 122 µM (inactive) and the AC50 [28] was 15.9 µM (active).
For COC(=O)C1=C(C)N(Cc2ccc(Cl)cc2)C(=S)NC1c1cccc(OC)c1 (stereo not given), the AC50 (Cryptococcus neoformans) was 57.5 µM (active), the AC50 (HeLa) was > 52 µM (inactive) and the AC50 (HEK293 [29]) was 11.4 µM (active). For the same molecule, the AC50 [30] was 11.4 µM (active).
With C[C@@H]1CN([C@H](C)CO)C(=O)c2cc(NC(=O)C3CCOCC3)ccc2O[C@H]1CN(C)S(=O)(=O)c1ccc(Cl)cc1 the AC50 [31] was 34.2 µM (active) and the AC50 [32] was 34.8 µM (active).
